Measurements from patent US8921376B2, “Pyrrolopyridines useful as inhibitors of protein kinase” (Vertex Pharmaceuticals Incorporated, priority 2005, dated 2014).

Legend:
Type in all cases: biochemical
JAK2 = JAK2 (Homo sapiens, UniProt O60674); experiment: JAK2 inhibition assay (as Example 3 with JAK-2 enzyme)
Experimental: (§1) Compounds were screened for their ability to inhibit JAK using the assay shown below. Reactions were carried out in a kinase buffer containing 100 mM HEPES (pH 7.4), 1 mM DTT, 10 mM MgCl2, 25 mM NaCl, and 0.01% BSA.
(§2) Substrate concentrations in the assay were 5 μM ATP (200 μCi/μmole ATP) and 1 μM poly(Glu)4Tyr. Reactions were carried out at 25° C. and 1 nM JAK3.
(§3) To each well of a 96 well polycarbonate plate was added 1.5 μl of a candidate JAK3 inhibitor along with 50/1 of kinase buffer containing 2 μM poly(Glu)4Tyr and 10 μM ATP. This was then mixed and 50 μl of kinase buffer containing 2 nM JAK3 enzyme was added to start the reaction. After 20 minutes at room temperature (25 C), the reaction was stopped with 50 μl of 20% trichloroacetic acid (TCA) that also contained 0.4 mM ATP. The entire contents of each well were then transferred to a 96 well glass fiber filter plate using a TomTek Cell Harvester. After washing, 60 μl of scintillation fluid was added and ^33P incorporation detected on a Perkin Elmer TopCount.
The assays were as described above in Example 3 except that JAK-2 enzyme was used, the final poly(Glu)4Tyr concentration was 15 μM, and final ATP concentration was 12 μM.

ROCK I = ROCK I (Homo sapiens, UniProt Q13464); experiment: ROCK-I inhibition assay (radioactive enzyme assay, MBP substrate)
ROCK I, sequence (Q13464 whole entry): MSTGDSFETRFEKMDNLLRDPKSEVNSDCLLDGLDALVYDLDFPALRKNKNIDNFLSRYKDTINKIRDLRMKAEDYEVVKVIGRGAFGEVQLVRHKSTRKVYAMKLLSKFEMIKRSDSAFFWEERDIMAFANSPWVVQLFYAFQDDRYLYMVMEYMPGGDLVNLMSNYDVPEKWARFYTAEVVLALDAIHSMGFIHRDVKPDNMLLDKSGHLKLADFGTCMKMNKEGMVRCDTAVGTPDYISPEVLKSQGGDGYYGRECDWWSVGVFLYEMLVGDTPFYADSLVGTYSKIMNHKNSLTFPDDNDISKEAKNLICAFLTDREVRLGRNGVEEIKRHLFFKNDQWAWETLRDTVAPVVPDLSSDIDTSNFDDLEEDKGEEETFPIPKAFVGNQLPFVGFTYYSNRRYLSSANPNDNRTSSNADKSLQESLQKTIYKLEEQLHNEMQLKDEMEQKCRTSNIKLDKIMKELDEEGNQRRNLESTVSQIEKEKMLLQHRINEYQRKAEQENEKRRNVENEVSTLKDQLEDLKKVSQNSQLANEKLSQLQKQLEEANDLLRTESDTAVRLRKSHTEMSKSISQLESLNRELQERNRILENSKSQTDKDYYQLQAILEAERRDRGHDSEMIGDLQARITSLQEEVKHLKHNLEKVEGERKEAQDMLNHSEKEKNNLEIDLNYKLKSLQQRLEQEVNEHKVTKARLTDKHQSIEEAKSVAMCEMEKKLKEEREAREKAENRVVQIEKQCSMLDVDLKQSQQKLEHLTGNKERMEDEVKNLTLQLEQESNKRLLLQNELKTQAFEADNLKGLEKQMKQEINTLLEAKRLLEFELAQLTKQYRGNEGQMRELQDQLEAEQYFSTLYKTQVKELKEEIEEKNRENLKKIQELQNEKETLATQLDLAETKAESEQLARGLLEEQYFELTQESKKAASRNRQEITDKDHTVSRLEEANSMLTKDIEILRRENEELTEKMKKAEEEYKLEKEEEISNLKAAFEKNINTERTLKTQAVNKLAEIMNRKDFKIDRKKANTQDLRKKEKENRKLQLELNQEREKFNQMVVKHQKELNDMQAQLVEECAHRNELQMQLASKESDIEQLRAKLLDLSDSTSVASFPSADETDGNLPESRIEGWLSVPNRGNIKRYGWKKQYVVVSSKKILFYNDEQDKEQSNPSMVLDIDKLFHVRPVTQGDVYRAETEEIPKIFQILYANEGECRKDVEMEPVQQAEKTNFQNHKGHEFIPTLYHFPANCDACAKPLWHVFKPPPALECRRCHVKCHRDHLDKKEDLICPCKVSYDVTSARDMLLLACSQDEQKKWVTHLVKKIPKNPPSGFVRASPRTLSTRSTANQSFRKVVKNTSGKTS
Experimental: Compounds were screened for their ability to inhibit ROCK using a standard radioactive enzyme assay. Assays were carried out in a solution containing 100 mM HEPES (pH 7.5), 10 mM MgCl2, 25 mM NaCl, 2 mM DTT, and 1.5% DMSO. Final substrate concentrations in the assay were 13 μM [γ-^33P] ATP (25 mCi ^33P ATP/mmol ATP, Perkin Elmer, Cambridge, Mass./Sigma Chemicals, St Louis, Mo.) and 27 μM Myelin Basic Protein (MBP). Final enzyme concentration in the assay was 5 nM ROCK. Assays were carried out at room temperature. 1.5 μl of DMSO stock containing serial dilutions of the compound of the present invention (concentrations ranging from 10 μM to 2.6 nM) was placed in a 96 well plate. 50 μl of Solution 1 (100 mM HEPES (pH 7.5), 10 mM MgCl2, […]) was added to the plate. The reaction was initiated by addition of 50 μl of Solution 2 (100 mM HEPES (pH 7.5), 10 mM MgCl2, 4 mM DTT, […] and 10 nM ROCK). After 2 hours the reaction was quenched with 50 μL of 30% trichloroacetic acid (TCA, Fisher) containing 9 mM ATP. Transfer of 140 μL of the quenched reaction to a glass fiber filter plate (Corning, Cat. No. 3511) was followed by washing 3 times with 5% TCA. 50 μl of Optima Gold scintillation fluid (Perkin Elmer) was added and the plates were counted on a Top Count (Perkin Elmer). After removing mean background values for all of the data points the data was fit using Prism software to obtain a Ki(app).

JAK3 = molecular target: T1, JAK3 (Homo sapiens, UniProt P52333); experiment: JAK3 inhibition assay (33P incorporation into poly(Glu)4Tyr)
T1 sequence (P52333 1-1124): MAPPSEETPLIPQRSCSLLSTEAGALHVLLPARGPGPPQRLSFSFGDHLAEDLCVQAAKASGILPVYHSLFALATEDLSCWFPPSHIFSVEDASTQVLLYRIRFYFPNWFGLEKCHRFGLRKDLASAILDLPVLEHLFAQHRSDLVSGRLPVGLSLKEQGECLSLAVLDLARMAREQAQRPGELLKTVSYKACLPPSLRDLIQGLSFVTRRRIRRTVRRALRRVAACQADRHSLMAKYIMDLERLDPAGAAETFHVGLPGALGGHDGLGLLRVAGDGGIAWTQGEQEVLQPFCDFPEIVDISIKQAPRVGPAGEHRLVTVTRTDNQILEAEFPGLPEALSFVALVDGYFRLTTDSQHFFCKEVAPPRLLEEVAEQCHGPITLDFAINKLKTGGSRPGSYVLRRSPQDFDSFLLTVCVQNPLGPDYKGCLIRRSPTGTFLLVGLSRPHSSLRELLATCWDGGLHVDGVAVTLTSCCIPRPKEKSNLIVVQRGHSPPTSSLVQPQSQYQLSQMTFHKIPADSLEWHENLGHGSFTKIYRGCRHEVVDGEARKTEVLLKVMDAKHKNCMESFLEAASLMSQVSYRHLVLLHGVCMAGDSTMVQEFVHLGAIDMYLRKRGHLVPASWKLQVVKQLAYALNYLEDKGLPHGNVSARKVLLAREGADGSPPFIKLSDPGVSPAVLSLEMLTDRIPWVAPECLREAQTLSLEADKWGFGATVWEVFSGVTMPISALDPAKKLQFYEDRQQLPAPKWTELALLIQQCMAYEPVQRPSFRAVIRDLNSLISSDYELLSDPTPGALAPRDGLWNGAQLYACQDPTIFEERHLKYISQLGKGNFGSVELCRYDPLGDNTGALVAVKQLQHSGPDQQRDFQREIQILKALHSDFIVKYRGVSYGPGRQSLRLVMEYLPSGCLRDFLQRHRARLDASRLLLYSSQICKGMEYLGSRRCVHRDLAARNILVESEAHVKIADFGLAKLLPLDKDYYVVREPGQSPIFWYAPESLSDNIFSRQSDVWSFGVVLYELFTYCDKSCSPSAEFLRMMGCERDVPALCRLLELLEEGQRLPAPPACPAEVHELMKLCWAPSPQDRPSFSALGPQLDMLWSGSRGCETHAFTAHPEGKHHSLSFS
Experimental: as §1, §2, §3

[1] = Table 6, enzyme inhibition data (Ki)
[2] = enzyme inhibition, Ki(app), Table 5

JAK2, sequence (O60674 whole entry): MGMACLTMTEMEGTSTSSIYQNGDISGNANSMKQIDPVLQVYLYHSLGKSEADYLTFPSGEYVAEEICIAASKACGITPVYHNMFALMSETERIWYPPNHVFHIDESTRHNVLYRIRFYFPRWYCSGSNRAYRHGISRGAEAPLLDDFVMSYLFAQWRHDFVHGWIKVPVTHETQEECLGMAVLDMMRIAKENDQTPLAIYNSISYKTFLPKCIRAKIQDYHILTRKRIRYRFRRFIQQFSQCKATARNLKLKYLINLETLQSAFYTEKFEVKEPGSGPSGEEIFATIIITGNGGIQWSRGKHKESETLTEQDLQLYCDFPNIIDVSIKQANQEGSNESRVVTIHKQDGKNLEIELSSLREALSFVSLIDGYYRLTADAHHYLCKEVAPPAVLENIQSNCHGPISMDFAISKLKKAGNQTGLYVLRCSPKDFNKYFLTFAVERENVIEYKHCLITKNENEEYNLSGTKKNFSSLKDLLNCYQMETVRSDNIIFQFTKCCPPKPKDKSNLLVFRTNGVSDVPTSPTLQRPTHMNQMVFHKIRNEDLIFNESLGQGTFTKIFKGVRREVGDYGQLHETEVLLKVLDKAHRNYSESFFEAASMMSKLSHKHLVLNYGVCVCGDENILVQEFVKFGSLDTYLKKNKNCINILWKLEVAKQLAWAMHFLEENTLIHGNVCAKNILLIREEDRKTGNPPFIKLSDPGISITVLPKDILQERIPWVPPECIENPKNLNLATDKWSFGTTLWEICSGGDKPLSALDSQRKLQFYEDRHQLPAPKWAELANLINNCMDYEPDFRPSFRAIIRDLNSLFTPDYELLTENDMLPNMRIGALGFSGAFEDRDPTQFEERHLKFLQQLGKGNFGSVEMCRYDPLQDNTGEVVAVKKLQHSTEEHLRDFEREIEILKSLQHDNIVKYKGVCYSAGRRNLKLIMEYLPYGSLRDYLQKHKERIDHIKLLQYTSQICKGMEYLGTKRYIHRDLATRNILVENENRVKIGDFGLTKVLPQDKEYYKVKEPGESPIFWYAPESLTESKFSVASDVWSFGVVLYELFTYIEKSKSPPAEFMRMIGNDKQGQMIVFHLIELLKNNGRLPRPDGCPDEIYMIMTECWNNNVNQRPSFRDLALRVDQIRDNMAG

Structure (SMILES) | Ki (JAK2; [1]) [nM] | Ki (ROCK I; [1]) [nM] | Ki (JAK3; [1]) [nM] | Ki (JAK2; enzyme inhibition, Table 5) [nM] | Ki (ROCK I; [2]) [nM] | Ki (JAK3; enzyme inhibition, Table 5) [nM]
CCCN(CCC#N)C(=O)c1cc(-c2ccnc3[nH]ccc23)c[nH]1 [compound 302] | < 500 | < 500 | < 500 |  |  | 
N#CCCN(Cc1cccnc1)C(=O)c1cc(-c2ccnc3[nH]ccc23)c[nH]1 [compound 299] | < 500 | < 500 | < 500 |  |  | 
CCC(=O)N1CC[C@H](Nc2c(Cl)cnc3[nH]ccc23)C1 [compound 168] | < 500 | > 4000 | 500 to 5000 |  |  | 
CCN(Cc1ccccc1)C(=O)c1cc(-c2ccnc3[nH]ccc23)c[nH]1 [compound 313] | < 500 | < 500 | < 500 |  |  | 
CCN(CCC#N)C(=O)c1cc(-c2c(Cl)cnc3[nH]ccc23)c[nH]1 [compound 329] | < 500 | 500 to 5000 | < 500 |  |  | 
c1cc(CN2CCCCC2)cc(-c2ccnc3[nH]ccc23)c1 [compound 87, 4-(3-Piperidin-1-ylmethyl-phenyl)-1H-pyrrolo[2,3-b]pyridine] |  |  |  | 500 to 5000 | 500 to 5000 | 500 to 5000
N#CCN(Cc1ccc(F)cc1)C(=O)c1cc(-c2c(F)cnc3[nH]ccc23)c[nH]1 [compound 400] | < 500 | < 500 | < 500 |  |  | 
N#Cc1ccc(Nc2c(Cl)cnc3[nH]ccc23)c(Cl)c1 [compound 163] | < 500 | > 4000 | < 500 |  |  | 
CCCCN(CC#N)C(=O)c1cc(-c2c(Cl)cnc3[nH]ccc23)c[nH]1 [compound 332] | < 500 | 500 to 5000 | < 500 |  |  | 
CCN(CCC#N)C(=O)c1cc(-c2ccnc3[nH]ccc23)c[nH]1 [compound 297] | < 500 | < 500 | < 500 |  |  | 
O=C(Nc1ccccc1)c1cc(-c2ccnc3[nH]ccc23)c[nH]1 [compound 275] | < 500 | < 500 | < 500 |  |  | 
CC(C)[C@@H]1CC[C@@H](C)C[C@H]1Nc1c(Cl)cnc2[nH]ccc12 [compound 151] | 500 to 5000 | > 4000 | 500 to 5000 |  |  | 
O=C(c1ccc(-c2ccnc3[nH]ccc23)s1)N1CCC[C@@H]1CO [compound 11] |  |  |  |  | < 500 | < 500
O=C(c1ccc(-c2ccnc3[nH]ccc23)s1)N1CCNCC1 [compound 4] |  |  |  |  | < 500 | < 500
CS(=O)(=O)Nc1cccc(CC(=O)Nc2cc(-c3ccnc4[nH]ccc34)cs2)c1 [compound 3] |  |  |  |  | < 500 | < 500
CC(=O)N(Cc1ccccc1)c1cc(-c2ccnc3[nH]ccc23)cs1 [compound 21] |  |  |  |  | 500 to 5000 | < 500
COC[C@@H]1CCCN1C(=O)c1ccc(-c2ccnc3[nH]ccc23)s1 [compound 12] |  |  |  |  | 500 to 5000 | 500 to 5000
O=C(c1ccc(-c2ccnc3[nH]ccc23)s1)N1CCC[C@H]1CO [compound 10] |  |  |  |  | < 500 | < 500
COC[C@H]1CCCN1C(=O)c1ccc(-c2ccnc3[nH]ccc23)s1 [compound 13] |  |  |  |  | < 500 | < 500

Continued, values first:

Ki (JAK2; [1]) [nM] | Ki (ROCK I; [1]) [nM] | Ki (JAK3; [1]) [nM] | Ki (JAK2; enzyme inhibition, Table 5) [nM] | Ki (ROCK I; [2]) [nM] | Ki (JAK3; enzyme inhibition, Table 5) [nM] | Structure (SMILES)
< 500 | < 500 | < 500 |  |  |  | CCCN(CC(F)(F)F)C(=O)c1csc(-c2ccnc3[nH]ccc23)n1 [compound 407]
 |  |  | 500 to 5000 | 500 to 5000 | 500 to 5000 | CCOC(=O)c1cccc(-c2ccnc3[nH]ccc23)c1 [compound 46, 3-(1H-Pyrrolo[2,3-b]pyridin-4-yl)-benzoic acid ethyl ester]
 |  |  | < 500 | < 500 | < 500 | CC(C)(C#N)c1cccc(-c2ccnc3[nH]ccc23)n1 [compound 71, 2-(6-(1H-pyrrolo[2,3-b]pyridin-4-yl)pyridin-2-yl)-2-methylpropanetrile]
500 to 5000 | 500 to 5000 | 500 to 5000 |  |  |  | COc1ccc(Cl)cc1-c1ccnc2[nH]ccc12 [compound 235]
 |  |  | 500 to 5000 | 500 to 5000 | 500 to 5000 | COc1cccc(CNc2cccc(-c3ccnc4[nH]ccc34)n2)c1 [compound 73, N-(3-Methoxybenzyl)-6-(1H-pyrrolo[2,3-b]pyridin-4-yl)pyridin-2-anine]
> 5000 | > 4000 | > 5000 |  |  |  | Nc1ncccc1-c1ccnc2[nH]ccc12 [compound 195]
500 to 5000 | 500 to 5000 | < 500 |  |  |  | Fc1ccc(-c2ccnc3[nH]ccc23)c(F)c1 [compound 207]
< 500 | < 500 | < 500 |  |  |  | CCN(Cc1ccccn1)C(=O)c1ccc(-c2ccnc3[nH]ccc23)s1 [compound 318]
< 500 | < 500 | < 500 |  |  |  | CC(C)(C(=O)NCC(F)(F)F)c1cccc(-c2ccnc3[nH]ccc23)n1 [compound 265]
 |  |  |  |  | 500 to 5000 | COc1ccc(-c2ccnc3[nH]ccc23)cc1OC [compound 1, 4-(3,4-dimethoxyphenyl)-1H-pyrrolo[2,3-b]pyridine]
 |  |  |  | < 500 | < 500 | CC(C)C(CO)NC(=O)c1ccc(-c2ccnc3[nH]ccc23)s1 (stereo not drawn) [compound 16]
 |  |  |  | < 500 | < 500 | C[C@@H](CO)NC(=O)c1ccc(-c2ccnc3[nH]ccc23)s1 [compound 15]
 |  |  |  | < 500 | < 500 | CCC(CO)NC(=O)c1ccc(-c2ccnc3[nH]ccc23)s1 (racemic) [compound 14]
 |  |  |  | < 500 | < 500 | COCCNC(=O)c1ccc(-c2ccnc3[nH]ccc23)s1 [compound 9]
 |  |  |  | < 500 | < 500 | CCCNC(=O)c1ccc(-c2ccnc3[nH]ccc23)s1 [compound 7]
 |  |  |  | < 500 | < 500 | O=C(NCCO)c1ccc(-c2ccnc3[nH]ccc23)s1 [compound 8]
 |  |  |  | < 500 | < 500 | CCC(CC)NC(=O)c1ccc(-c2ccnc3[nH]ccc23)s1 [compound 17]
 |  |  |  |  | 500 to 5000 | O=C(N[C@H](CO)c1cccc(Cl)c1)c1cc(-c2ccnc3[nH]ccc23)c[nH]1 [compound 2]
 |  |  |  | < 500 | < 500 | O=C(NCC1CCCO1)c1ccc(-c2ccnc3[nH]ccc23)s1 (stereo not drawn) [compound 6]
 |  |  | 500 to 5000 |  | 500 to 5000 | c1cc(NC2CCCC2)nc(-c2ccnc3[nH]ccc23)c1 [compound 24, N-Cyclopentyl-6-(1H-pyrrolo[2,3-b]pyridin-4-yl)pyridin-2-amine]
 |  |  |  | < 500 | 500 to 5000 | COCC(=O)Nc1cc(-c2ccnc3[nH]ccc23)cs1 [compound 23]
